Data reported in patent publication US9458179B2, “Quinuclidine, 1-azabicyclo[2.2.1]heptane, 1-azabicyclo [3.2.1]octane, and 1-azabicyclo[3.2.2]nonane compounds as alpha-7 nicotinic acetylcholine receptor ligands” (BRISTOL-MYERS SQUIBB COMPANY, priority 2012, dated 2016).

biological target: T1, α-7 nicotinic ACh receptor ion channel (Rattus norvegicus, UniProt Q05941); test: Ca2+-sensitive fluorescence-based FLIPR assay of α7 nicotinic receptor channel function (agonist activity); format: cell-based; conditions: FLIPR α7-HI (EC50, nM), HEK 293 cells, Ca2+ flux; Table 1, activity class
T1 construct: expressed in transfected cells
T1 sequence (Q05941 23-502): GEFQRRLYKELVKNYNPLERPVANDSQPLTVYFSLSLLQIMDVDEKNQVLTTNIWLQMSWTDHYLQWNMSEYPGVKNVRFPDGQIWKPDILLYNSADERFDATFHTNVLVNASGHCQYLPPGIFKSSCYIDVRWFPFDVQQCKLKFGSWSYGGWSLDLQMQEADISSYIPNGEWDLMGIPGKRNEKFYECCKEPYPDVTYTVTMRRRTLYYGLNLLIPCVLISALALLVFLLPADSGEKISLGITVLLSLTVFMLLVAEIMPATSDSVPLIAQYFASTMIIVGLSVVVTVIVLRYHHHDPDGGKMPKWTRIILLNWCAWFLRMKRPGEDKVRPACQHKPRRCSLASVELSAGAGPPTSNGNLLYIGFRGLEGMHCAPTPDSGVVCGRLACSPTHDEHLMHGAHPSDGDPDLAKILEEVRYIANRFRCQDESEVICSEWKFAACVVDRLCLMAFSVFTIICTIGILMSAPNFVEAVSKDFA
Protocol: II) A Ca^2+-Sensitive, Fluorescence-Based Assay α-7 for Nicotinic Acetylcholine Receptor Channel Function in Mammalian Cells (“FLIPR”).
Lead compounds are evaluated for agonist activity at α-7, α3β4, α4αβ2, and α1β1δ1ε sub-types of nicotinic ACh receptor ion channels expressed in mammalian HEK 293 cells. Agonist potency and efficacy values are determined from kinetic fluorescence Ca^2+ influx measurements made using a 384 well FLIPR (Fluorescence Image Plate Reader). […] In this assay, channel expressing HEK cell lines seeded in 384 well assay plates are loaded with a membrane permeant fluorescent Ca^2+ indicator dye, whose 510 nm green emission signal increases in response to elevation of intracellular Ca^2+ concentration. The basal fluorescence from the cells is monitored in real time, followed by the acute addition of test compounds.
Reagents: The acetomethoxy (AM) ester of the Ca^2+ indicator dye Fluo-4 was obtained from InVitrogen, (Carlsbad, Calif.). Acetylcholine and all buffer constituents were purchased from Sigma Chemical Company, St. Louis, Mo. G418 and Minimal Essential Medium were purchased from InVitrogen Life Technologies, Carlsbad, Calif. Fetal bovine serum was purchased from (InVitrogen, Carlsbad, Calif.).
HEK-293 cells were grown in Minimal Essential Medium containing 10% (v/v) fetal bovine serum at 37° C. in a 5% CO2 incubator. HEK-293 cells stably expressing the ion channels were grown in the same medium with the addition of 500 μg/ml G418.
HEK-293 cells expressing the ion channels of interest were plated in 384 well, black-walled, clear-bottomed, poly-D-lysine coated plates at a density of ˜20,000 cells/well in 20 μl of Minimal Essential Medium containing 10% (v/v) fetal bovine serum and incubated for 2 days at 29° C. in a 5% CO2 incubator. Prior to assay, cells were loaded with the Fluo-4 AM ester. […] Dye loading was allowed to proceed for 90 minutes at room temperature at which time the dye loading solution was removed and replaced with 40 μl/well of Hanks buffer. Cells loaded with dye were loaded onto a FLIPR384 (Molecular Devices, Sunnyvale, Calif.). […] Emission was filtered using a 540+/−30 nm bandpass filter. For evaluation of the effects of test compounds using the Ca^2+ flux assay, compounds to be tested were provided in assay ready plates. For nicotinic receptor ion channel expressing cells, the assay was initiated by the addition of 20 μl/well of Hanks buffer containing test compounds. For all assays, data were collected at 1 Hz for 10 seconds (baseline), at which time the compound containing stimulus buffers are added, and further measurements collected at 0.33 Hz for 3 min.
The statistical robustness of the nicotinic receptor Ca^2+ flux assays is determined from blanks and totals wells. […] The raw fluorescence units data files generated on the FLIPR plate reader are automatically exported and processed by in-house data analysis tools. The reduced percent activation data for each concentration of test compound are fit using MathIQ fitting engine (ID Business Solutions Limited, Surrey, UK). Data were analyzed by fitting maximum amplitudes of change in fluorescence, for Ca^2+ flux for a given condition of test compound. […] Test compound efficacy values (Ymax values) are expressed relative to a maximal response to acetylcholine in the total wells.

SMILES	EC50
COc1ccc2nc(NC3=NCC4(CN5CCC4CC5)N3)sc2n1 (stereo not drawn) [Example 46]	100 to 1000 nM
Cc1ccc2nc(NC3=NCC4(CN5CCC4CC5)N3)oc2c1 (stereo not drawn) [Example 8a]	< 100 nM
Cc1ccc2nc(NC3=NCC4(CN5CCC4CC5)N3)sc2c1 (stereo not drawn) [Example 63, N-(3,5-dihydro-1′-azaspiro[imidazole-4,3′-bicyclo[2.2.2]octane]-2-yl)-6-methylbenzo[d]thiazol-2-amine]	100 to 1000 nM
c1ccc2sc(NC3=NCC4(CN5CCC4CC5)N3)nc2c1 (single isomer, unassigned) [Example 11b]	1000 to 100000 nM
Clc1cnc(NC2=NCC3(CN4CCC3CC4)N2)cn1 (stereo not drawn) [Example 7, N-(5-Chloro-2-pyrazinyl)-1′,5′-dihydrospiro[4-azabicyclo[2.2.2]octane-2,4′-imidazol]-2′-amine]	100 to 1000 nM
CN1C(Nc2nc3ccc(Cl)nc3s2)=NCC12CN1CCC2CC1 (stereo not drawn) [Example 29]	100 to 1000 nM
CCN1C(Nc2ncc(-c3ccccc3)s2)=NCC12CN1CCC2CC1 (stereo not drawn) [Example 6]	1000 to 100000 nM
c1ccn2nc(NC3=NCC4(CN5CCC4CC5)N3)nc2c1 (stereo not drawn) [Example 34]	100 to 1000 nM
Cc1ccc2nc(NC3=NCC4(CN5CCC4CC5)N3)oc2n1 (stereo not drawn) [Example 62, N-(3,5-Dihydro-1′-azaspiro[imidazole-4,3′-bicyclo[2.2.2]octane]-2-yl)-5-methyloxazolo[5,4-b]pyridin-2-amine]	100 to 1000 nM
Clc1ccc(NC2=NCC3(CN4CCC3CC4)N2)nn1 (stereo not drawn) [Example 25]	1000 to 100000 nM
CN1C(Nc2nc3ccc(F)nc3s2)=NCC12CN1CCC2CC1 (stereo not drawn) [Example 45]	1000 to 100000 nM

same assay, conditions: FLIPR α7-HI (EC50, nM), HEK 293 cells, Ca2+ flux; Table 2, activity class column

SMILES	EC50
COc1ccc2nc(NC3=NC4(CO3)CN3CCC4CC3)sc2c1 (stereo not drawn) [Example 67, N-(6-Methoxybenzo[d]thiazol-2-yl)-5H-1′-azaspiro[oxazole-4,3′-bicyclo[2.2.2]octan]-2-amine]	1000 to 100000 nM

same assay, conditions: FLIPR α7-HI (EC50, nM), HEK 293 cells, Ca2+ flux; Table 3

SMILES	EC50
COc1cc(NC2=NCCC3(CN4CCC3CC4)O2)ncn1 (stereo not drawn) [Example 80]	3650 nM
c1csc(NC2=NCCC3(CN4CCC3CC4)O2)n1 (stereo not drawn) [Example 73]	4530 nM
c1ccc(-c2cnc(NC3=NCCC4(CN5CCC4CC5)O3)s2)cc1 (stereo not drawn) [Example 71]	87 nM

same assay, conditions: FLIPR α7-HI (EC50, nM), HEK 293 cells, Ca2+ flux; Table 3, activity class

SMILES	EC50
c1ccc2cc(NC3=NCCC4(CN5CCC4CC5)O3)ncc2c1 (single isomer, unassigned) [Example 76b]	> 1e+06 nM
Clc1ccc(NC2=NCCC3(CN4CCC3CC4)O2)nn1 (stereo not drawn) [Example 83]	1000 to 100000 nM
Clc1cnc(NC2=NCCC3(CN4CCC3CC4)O2)cn1 (stereo not drawn) [Example 72, N-(5-Chloropyrazin-2-yl)-4,5-dihydro-1′-azaspiro[[1,3]oxazine-6,3′-bicyclo[2.2.2]octan]-2-amine]	1000 to 100000 nM
COc1cc(NC2=NCCC3(CN4CCC3CC4)O2)ncn1 (stereo not drawn) [Example 80]	1000 to 100000 nM
Brc1ccc2nc(NC3=NCCC4(CN5CCC4CC5)O3)sc2n1 (stereo not drawn) [Example 87]	1000 to 100000 nM
COc1ccc2nc(NC3=NCCC4(CN5CCC4CC5)O3)sc2c1 (stereo not drawn) [Example 70, N-(6-Methoxybenzo[d]thiazol-2-yl)-4,5-dihydro-1′-azaspiro[[1,3]oxazine-6,3′-bicyclo[2.2.2]octan]-2-amine]	100 to 1000 nM
c1ccc2sc(NC3=NCCC4(CN5CCC4CC5)O3)nc2c1 (stereo not drawn) [Example 74]	100 to 1000 nM
c1csc(NC2=NCCC3(CN4CCC3CC4)O2)n1 (stereo not drawn) [Example 73]	1000 to 100000 nM
c1ccc(-c2cnc(NC3=NCCC4(CN5CCC4CC5)O3)s2)cc1 (stereo not drawn) [Example 71]	< 100 nM
c1ccc2nc(NC3=NCCC4(CN5CCC4CC5)O3)cnc2c1 (stereo not drawn) [Example 85]	1000 to 100000 nM

same assay, conditions: FLIPR α7-HI (EC50, nM), HEK 293 cells, Ca2+ flux; Table 4, activity class

SMILES	EC50
CN1CC2(CN3CCC2CC3)O/C1=N\c1ncc(-c2ccccc2)s1 (stereo not drawn) [Example 90, (Z)—N-(3-Methyl-1′-azaspiro[oxazolidine-5,3′-bicyclo[2.2.2]octane]-2-ylidene)-5-phenylthiazol-2-amine]	100 to 1000 nM
CN1CC2(CN3CCC2CC3)O/C1=N\c1cnc(Cl)cn1 (stereo not drawn) [Example 91, (Z)-5-Chloro-N-(3-methyl-1′-azaspiro[oxazolidine-5,3′-bicyclo[2.2.2]octane]-2-ylidene)pyrazin-2-amine]	1000 to 100000 nM

same assay, conditions: HEK 293 cells, Ca2+ flux; Table 3, activity class; read-out: FLIPR α7-HI (EC50)

SMILES	EC50
c1ccc2[nH]c(NC3=NCCC4(CN5CCC4CC5)O3)nc2c1 (stereo not drawn) [Example 77]	> 1e+06 nM

same assay, conditions: HEK 293 cells, Ca2+ flux; Table 3; read-out: FLIPR α7-HI (EC50)

SMILES	EC50
c1ccc2[nH]c(NC3=NCCC4(CN5CCC4CC5)O3)nc2c1 (stereo not drawn) [Example 77]	> 100000 nM

same assay, conditions: HEK 293 cells, Ca2+ flux; read-out: FLIPR α7-HI (EC50)

SMILES	EC50
c1ccc2[nH]c(NC3=NCC4(CN5CCC4CC5)N3)nc2c1 (stereo not drawn) [Example 16]	1290 nM
